Laboratory results as given in patent publication US20260028364A1, “CATIONIC CHROMENONES AND THEIR USE IN ONCOLOGY” (FLORATEK PHARMA S.A., priority 2022, published 2026).

Columns and labels:
Type in all cases: cell-based
MCF-7 = assay: CellTiter-Glo cell viability, MCF-7; settings: Homo sapiens, MCF7; MCF-7 cells, 72 h with compound
Procedure: (§1) Antitumor activity against a panel of cancer cell lines Antitumor activity of the compounds was assessed by using the CellTiter-Glow® Luminescent Cell Viability assay (Promega #G7572) according to the manufacturer's instructions. The compounds were tested at 5 or 6 concentrations in 1:2 dilution increments (highest concentration 10 µM) in triplicate well conditions.
(§2) Tumor cells were grown at 37° C. in a humidified atmosphere with 5% CO2 in RPMI 1640 or DMEM medium, supplemented with 10% (v/v) fetal calf serum and 50 μg/ml gentamicin for up to 20 passages, and were passaged once or twice weekly. Cells were harvested using TrypLE or PBS buffer containing 1 mM EDTA, and the percentage of viable cells is determined using a cell counter.
(§3) Cells were harvested from exponential phase cultures, counted and plated in 96 well flat-bottom microtiter plates at a cell density depending on the cell line's growth rate (4,000-20,000 cells/well depending on the cell line's growth rate) in RPMI 1640 or DMEM medium supplemented with 10% (v/v) fetal calf serum and 50 μg/ml gentamicin (140 μl/well). Cultures were incubated at 37° C. and 5% CO2 in a humidified atmosphere. After 24 h, 10 μl of test compounds or control medium are added, and left on the cells for another 72 h. Compounds were serially diluted in DMSO, transferred in cell culture medium, and added to the assay plates. The DMSO concentration was kept constant at <0.2% v/v across the assay plate. Viability of cells was quantified by the CellTiter-Glow® Luminescent Cell Viability assay (Promega #G7572). Luminescence was measured with the microplate luminometer (En Vision Perkin Elmer).
(§4) Sigmoidal concentration-response curves were fitted to the data points (test-versus-control, T/C values) obtained for each tumor model using Graph Pad prism 5.02 software. IC50 values are reported as absolute IC50 values, being the concentration of test compound at the intersection of the concentration-response curves with T/C=50%.

NCI-H1299 = assay: CellTiter-Glo cell viability, NCI-H1299; settings: Homo sapiens, NCI-H1299; H1299 cells, 72 h with compound
Procedure: as §1, §2, §3, §4

HCC-15 = assay: CellTiter-Glo cell viability, HCC-15; settings: HCC-15 cells, 72 h with compound
Procedure: as §1, §2, §3, §4

Raji = assay: CellTiter-Glo cell viability, Raji; settings: Homo sapiens; Raji cells, 72 h with compound
Procedure: as §1, §2
as §3, with “After 24 h, 10 μl of test compounds or control medium are added, and left on the cells for another 72 h. Compounds were serially diluted in DMSO, transferred in cell culture medium, and added to the assay plates. The DMSO concentration was kept constant at <0.2% v/v across the assay plate.” left out, “Elmer). […]” for “Elmer).”

MIA-PaCa-2 = assay: CellTiter-Glo cell viability, MIA-PaCa-2; settings: MIA-PaCa-2 cells, 72 h with compound
Procedure: as §1, §2, §3, §4

A-673 = assay: CellTiter-Glo cell viability, A-673; settings: Homo sapiens, A673; A-673 cells, 72 h with compound
Procedure: as §1, §2, §3, §4

SK-Mel-5 = assay: CellTiter-Glo cell viability, SK-Mel-5; settings: SK-Mel-5 cells, 72 h with compound
Procedure: as §1, §2, §3, §4

U87MG = assay: CellTiter-Glo cell viability, U87MG; settings: Homo sapiens, U-87 MG; U87MG cells, 72 h with compound
Procedure: as §1, §2, §3, §4

A375 = assay: CellTiter-Glo cell viability, A375; settings: A375 cells, 72 h with compound
Procedure: as §1, §2, §3, §4

Kelly = assay: CellTiter-Glo cell viability, Kelly; settings: Kelly cells, 72 h with compound
Procedure: as §1, §2, §3, §4

LoVo = assay: CellTiter-Glo cell viability, LoVo; settings: LoVo cells, 72 h with compound
Procedure: as §1, §2
as §3, with “After 24 h, 10 μl of test compounds or control medium are added, and left on the cells for another 72 h. Compounds were serially diluted in DMSO, transferred in cell culture medium, and added to the assay plates. The DMSO concentration was kept constant at <0.2% v/v across the assay plate.” left out, “Elmer). […]” for “Elmer).”

SK-N-SH = assay: CellTiter-Glo cell viability, SK-N-SH; settings: SK-N-SH cells, 72 h with compound
Procedure: as §1, §2, §3, §4

H69 = assay: CellTiter-Glo cell viability, H69; settings: H69 cells, 72 h with compound
Procedure: as §1, §2, §3, §4

BxPC-3 = assay: CellTiter-Glo cell viability, BxPC-3; settings: BxPC-3 cells, 72 h with compound
Procedure: as §1, §2, §3, §4

22Rv1 = assay: CellTiter-Glo cell viability, 22Rv1; settings: 22Rv1 cells, 72 h with compound
Procedure: as §1, §2, §3, §4

A2058 = assay: CellTiter-Glo cell viability, A2058; settings: A2058 cells, 72 h with compound
Procedure: as §1, §2, §3, §4

MDA-MB-468 = assay: CellTiter-Glo cell viability, MDA-MB-468; settings: MDA-MB-468 cells, 72 h with compound
Procedure: as §1, §2
as §3, with “After 24 h, 10 μl of test compounds or control medium are added, and left on the cells for another 72 h. Compounds were serially diluted in DMSO, transferred in cell culture medium, and added to the assay plates. The DMSO concentration was kept constant at <0.2% v/v across the assay plate.” left out, “Elmer). […]” for “Elmer).”

H460 = assay: CellTiter-Glo cell viability, H460; settings: H460 cells, 72 h with compound
Procedure: as §1, §2
as §3, with “After 24 h, 10 μl of test compounds or control medium are added, and left on the cells for another 72 h. Compounds were serially diluted in DMSO, transferred in cell culture medium, and added to the assay plates. The DMSO concentration was kept constant at <0.2% v/v across the assay plate.” left out, “Elmer). […]” for “Elmer).”

LNCaP = assay: CellTiter-Glo cell viability, LNCaP; settings: LNCaP cells, 72 h with compound
Procedure: as §1, §2
as §3, with “After 24 h, 10 μl of test compounds or control medium are added, and left on the cells for another 72 h. Compounds were serially diluted in DMSO, transferred in cell culture medium, and added to the assay plates. The DMSO concentration was kept constant at <0.2% v/v across the assay plate.” left out, “Elmer). […]” for “Elmer).”

NFKB = assay: SelectScreen CellSensor pathway inhibition, NFKB; settings: NFKB-bla Jurkat, stimulus TNF-alpha
Procedure: Inhibition of various cellular pathways known to be involved in malignancy was tested using the SelectScreen Cell-based Pathway Profiling GeneBLAzer™ cell signaling pathway specific CellSensor™ cell lines ((Thermo Fisher). The assay is based on a beta-lactamase reporter activity which is modulated and can be measured quantitatively and selectively with the LiveBLAzer™-FRET B/G Loading Substrate. SelectScreen Cell-Based Pathway Profiling Service uses XLfit from IDBS. The dose response curve is curve fit to model number 205 (sigmoidal dose-response model). Custom logic was built by Thermo Fisher for the data analysis tool to address the different compound characteristics that can be observed with functional assays.
NFKB—NFKB-bla Jurkat—Inhibitor Screen, Activated by TNF-Alpha
NFKB-bla Jurkat cells are thawed and resuspended in Assay Media (DMEM, 10% dialyzed FBS, 25 mM HEPES pH 7.3, 0.1 mM NEAA, 100 U/mL/100 μg/mL Pen/Strep) to a concentration of 625,000 cells/mL. […] 4 μL of 10×control activator TNF-alpha at the pre-determined EC80 concentration is added to wells containing the control inhibitor or compounds.
The plate is incubated for 5 hours at 37° C./5% CO2 in a humidified incubator. […] The plate is read on a fluorescence plate reader.

Structure (SMILES)	IC50 (NCI-H1299) [nM]	IC50 (HCC-15; HCC15) [nM]	IC50 (MIA-PaCa-2; Homo sapiens) [nM]	IC50 (A375; Homo sapiens, A-375) [nM]	IC50 (Kelly) [nM]	IC50 (HCC-15) [nM]	IC50 (MIA-PaCa-2) [nM]	IC50 (SK-Mel-5) [nM]	IC50 (A375) [nM]	IC50 (SK-N-SH) [nM]	IC50 (H69) [nM]	IC50 (BxPC-3) [nM]	IC50 (22Rv1) [nM]	IC50 (A2058) [nM]	IC50 (MDA-MB-468) [nM]	IC50 (H460) [nM]	IC50 (LNCaP) [nM]	further results
COc1c(O)ccc2c(=O)c(-c3ccc(CCCC[P+](c4ccccc4)(c4ccccc4)c4ccccc4)cc3)coc12 [SND530, (4-(4-(7-Hydroxy-8-methoxy-4-oxo-4H-chromen-3-yl)phenyl)butyl)triphenylphosphonium bromide]	1400	3700	1200	1500														IC50 (MCF-7): 1000 nM; IC50 (Raji): 140 nM; IC50 (A-673): 500 nM; IC50 (SK-Mel-5; Homo sapiens): 1100 nM; IC50 (U87MG): 1900 nM
COc1ccc2c(=O)c(-c3cccc(CC[P+](c4ccccc4)(c4ccccc4)c4ccccc4)c3)coc2c1OC [SND542]					1710	1470	430	870	760	2750	210	1460	800	690	510	1780	690	IC50 (LoVo): 4830 nM
COc1ccc2c(=O)c(-c3cccc(C[P+](c4ccccc4)(c4ccccc4)c4ccccc4)c3)coc2c1OC [SND543]					1440	1340	630	970	1510	3870	970	1810	920	980	560	2000	680	
COc1ccc2c(=O)c(-c3ccc(CC[P+](c4ccccc4)(c4ccccc4)c4ccccc4)cc3)coc2c1OC [SND550]	1300	1300	4300	920														IC50 (SK-N-SH; Homo sapiens): 3690 nM; IC50 (H69; Homo sapiens, NCI-H69): 680 nM; IC50 (22Rv1; Homo sapiens): 750 nM
CC1=C(CO)C(=O)O[C@@H]([C@@H](C)[C@H]2CC[C@H]3[C@@H]4C[C@H]5O[C@]56[C@@H](O)C=CC(=O)[C@]6(C)[C@H]4CC[C@]23C)C1 [Withaferin A, reference compound]																		IC50 (NFKB): 240 nM
